In a melting point compilation (Tetko et al.; mined from patent text by program, amines drawn as free bases though some values may be those of a salt) one finds melting point data, which are given here for 89 molecules.

Structures are written as SMILES. Bounds are passed on as bounds.

The melting point is the temperature, or range, at which the solid turns liquid.

In turn, `C=Cc1ccc(CNc2ccc(Nc3ccccc3)cc2)cc1` gave a melting point of 143 °C.

`CN(C)c1nc(N(C)C)nc(N(C)Cc2ccccc2O)n1` showed a melting point of 169 to 171 °C.

Molecule `NC(=S)Nc1ccc(Br)cc1` came in with a melting point of 188 to 189 °C.

On to `N#Cc1nn(-c2c(Cl)cc(C(F)(F)F)cc2Cl)cc1C#CBr`, for which the melting point is 166 to 168 °C.

As to `NC(=O)c1cc(-c2ccc(OC(F)(F)F)cc2)c2c3c(ccc2c1)OCO3`, the melting point lay within 188 to 190 °C.

In the case of `CN1C(=O)c2ccccc2C2(CC(=O)NC2=O)C1=O` (centres undefined), the melting point was in the range of 224 to 225 °C.

In turn, `C=CCOc1nc(N)nc(-c2ccccc2)c1-c1ccc(=O)n(C(C)C)n1` showed a melting point of 130 to 132 °C.

For `CCc1nn2ccc3c(c2c1CCNC(C)=O)CCO3`, the melting point fell in the range of 161 to 162 °C.

Take `Cn1nc(C(=O)O)nc1NCCCOc1cccc(CN2CCCCC2)c1`: the melting point came to 130 °C.

Molecule `CN(C)S(=O)(=O)c1ccc(C(O)c2cccc(O[Si](C)(C)C(C)(C)C)c2)cc1` (centres undefined) yielded a melting point of 100 to 103 °C.

Turning to `CN1C(=O)C2C3C=CC(CCC3)C2(c2ccc(Cl)c(Cl)c2)C1=O` (centres undefined), the melting point was in the range of 110 to 115 °C.

On to `Cc1cccc(-c2nc3ccc(Cl)cn3c2-c2ccnc(-c3ccc(CN4CCOCC4)cc3)c2)n1`, for which the melting point came to 157 °C.

Consider `CCOC(=O)CON=c1c2nccc3cccc(c32)n2cccc12`, for which the melting point was found to be 134 °C.

`Cn1c(=O)oc2cc(CCN3CCN(c4ccc(F)cc4)CC3)ccc21` registered a melting point of 161 to 164 °C.

The molecule `CCc1nnc(NS(=O)(=O)c2ccc(N)cc2)s1` showed a melting point of 190 to 191 °C.

The molecule `CC(=O)OCC1Cc2cccc3c(C4=C(c5cn(C)c6ccccc56)C(=O)OC4=O)cn(c23)C1` (centres undefined) gave a melting point of 198 to 200 °C.

Consider `C[Si](C)(C)c1cc(C(=O)O)cc([Si](C)(C)C)c1`, for which the melting point is more than 300 °C.

Turning to `C=C(C)C(=O)OCCNC(=O)Nc1nc(=O)cc(C)[nH]1`, the melting point was found to be 208 °C.

Regarding `CC1(C)SCN(CCCCN2CCN(c3n[nH]c4ccccc34)CC2)C1=O`, the melting point lay in the range of 139 to 142 °C.

Take `CC(C)Sc1ccc(N)c(C#N)c1`: the melting point lay in the range of 67 to 68 °C.

`CC(=O)C(C)(N=Nc1ccc(C(O)(C(F)(F)F)C(F)(F)F)cc1)C(N)=O` (centres undefined) showed a melting point of 148 to 152 °C.

As for `COc1ccc(CCNC(=O)C(F)(F)F)cc1S(=O)(=O)Cl`, the melting point lay within 96 to 98 °C.

Molecule `NC(=O)c1ccc(-c2ccc(-c3ccn(C(CC(=O)O)C(=O)NC(CO)Cc4ccccc4)c3)cc2)cc1` (centres undefined) showed a melting point of 218 to 220 °C.

As for `CCN(CC)CC1CCCCN1CCCCN1c2ccccc2C(=O)Nc2cccnc21` (centres undefined), the melting point turned out to be 112 °C.

Molecule `ClCc1coc(-c2cc3ccccc3s2)n1` had a melting point of 150 to 151 °C.

With `CCSC(=O)c1c(C(F)(F)F)nc(C(F)F)c(C(=O)OC)c1N`, the melting point lay in the range of 72 to 74 °C.

Turning to `Cc1cc(O)c(C)cc1O`, the melting point was 60 to 62 °C.

In turn, `Cc1ccc(NC(=O)c2ccc(CN(C)C)c(C(F)(F)F)c2)cc1Br` displayed a melting point of 169 to 172 °C.

Turning to `CC(C)C(C(=O)O)c1ccc2sccc2c1` (centres undefined), the melting point was in the range of 150 to 151 °C.

On to `CCOc1cc(F)ccc1-c1noc2c(Cl)c(OC)ccc12`, for which the melting point was in the range of 150 to 152 °C.

The molecule `Cn1c(=O)cc(-c2nc(-c3ccccc3)cs2)c2cc(C(=O)c3ccc(Cl)cc3)ccc21` registered a melting point of 216 °C.

Take `c1ccc2c(c1)CCC1(CCOCC1)NC2`: the melting point fell in the range of 76 to 78 °C.

Regarding `CC1Cc2c(N=C3OC(=O)C4=C3CCCC4)ccc(Cl)c2O1` (centres undefined), the melting point is 125 to 127 °C.

As to `Cc1ccc(-c2ccc(S(C)(=O)=O)cc2)n1-c1ccc(-c2nccs2)cc1`, the melting point lay within 190 to 191 °C.

For `Oc1ccc(Br)c2c1CCCC2`, the melting point lay in the range of 83 to 85 °C.

`COc1ccc(C(=O)N(C)CC(O)COc2cccc3[nH]c4ccccc4c23)cc1OC` (centres undefined) returned a melting point of 77 to 80 °C.

`Cc1[nH]cnc1/C=C1\CCc2sc3ccccc3c2C1=O` showed a melting point of 220 to 223 °C.

As for `O=c1ccc(S(=O)(=O)c2cc3ccccc3s2)n[nH]1`, the melting point is 209 to 210 °C.

In turn, `CCN1c2ncccc2C(=O)N(C)c2ccc(-c3cc[nH]c3C(C)=O)nc21` returned a melting point of more than 80 °C.

On to `COc1ccc2cc(OCc3ccccc3)c(N)cc2c1`, for which the melting point fell in the range of 149 to 151 °C.

Regarding `Nc1nc(OCc2ccccc2)c2ncn(CCC3COP(=O)(OCc4ccccc4)OC3)c2n1` (centres undefined), the melting point fell in the range of 162 to 166 °C.

In turn, `C[C@@H](Nc1c(-c2c(F)cc(F)cc2F)c(Cl)nc2ncnn12)C(C)(C)C` displayed a melting point of 169 to 171 °C.

In the case of `COc1ccc2c(c1)C(CCN1CC=C(c3ccccc3)CC1)C(C)N2C(C)=O` (centres undefined), the melting point lay in the range of 113 to 115 °C.

On to `Cc1cccc(NC(=O)NC2CN(C(=O)NC3CCCCC3)c3ccccc3N(CC(=O)c3ccccc3C)C2=O)c1` (centres undefined), for which the melting point was in the range of 117 to 119 °C.

For the molecule `Cc1nc(NC(=O)c2cnn3c(C(F)(F)F)cc(-c4ccc(Cl)c(Cl)c4)nc23)sc1S(=O)(=O)NC(C)(C)CO`, the melting point turned out to be 265 °C.

Molecule `COc1ccc(N2C(=O)O[C@H](COC(=O)c3ccc([N+](=O)[O-])cc3)[C@@H]2C)cc1` yielded a melting point of 138 to 140 °C.

Consider `CCOC(=O)c1cn2c3c(cccc3c1=O)C1CCCCC12` (centres undefined), for which the melting point was in the range of 71 to 73 °C.

Molecule `Cn1cnc(COc2nn3c(-c4cc(CO)on4)nnc3c3ccccc23)n1` showed a melting point of 275 to 276 °C.

Take `Cc1cc(C)n(-c2cnc(CN)c(Nc3ccc(Cl)cc3)n2)n1`: the melting point lay within 156 to 160 °C.

For the molecule `CCOC(=O)c1c(-c2cccc(C)c2)csc1N1C(=O)c2ccccc2C1=O`, the melting point is 175 to 176 °C.

Molecule `COc1nccc(C)c1NC(=O)c1cccnc1Cl` gave a melting point of 145 to 146 °C.

The molecule `Nc1c([N+](=O)[O-])sc2cc(Cl)ccc12` displayed a melting point of 243 to 245 °C.

In the case of `O=C(Nc1cccc(Cc2ccccc2)c1)N1CCc2c(cnc3[nH]ncc23)C1`, the melting point was in the range of 175 to 178 °C.

Molecule `CCCc1nc2c(N)nc(C)c(C)c2n1CCOCc1ccccc1` yielded a melting point of 99.5 to 100 °C.

In the case of `CS(=O)c1ncc(Cl)cn1` (centres undefined), the melting point came out at 48 °C.

The molecule `N#Cc1c(-c2cccs2)[nH]c(C(F)(F)F)c1Cl` had a melting point of 221 to 223 °C.

Consider `CN(C)C(=S)Sc1sn(CCc2ccccc2)c(=O)c1Cl`, for which the melting point is 125 to 127 °C.

On to `CC(=O)N(C)S(=O)(=O)c1cc(-n2c(=O)cc(C(F)(F)F)n(C)c2=O)ccc1Cl`, for which the melting point was in the range of 193 to 195 °C.

The molecule `COC(=O)CCCc1cc2cc(Cl)ccc2n1S(=O)(=O)c1ccc2nc(C)sc2c1` had a melting point of 151 to 153 °C.

`COc1ccc(-c2cc3cc(F)c(F)cc3[nH]2)cc1NCc1ccc([N+](=O)[O-])c(O)c1` yielded a melting point of 170 to 171 °C.

In turn, `NC(=O)NC1CCC(=O)c2ccsc21` (centres undefined) registered a melting point of 240 to 241 °C.

`O=C(Nc1cccnc1NCc1ccc(Cl)cc1)c1ccccc1F`: the melting point fell in the range of 76 to 78 °C.

`C#CCNc1cccc2c1OC(F)(F)O2` came in with a melting point of 66 to 68 °C.

Turning to `CONC1=NC(=O)C(=Cc2cccc(-c3cc(F)c(O)c(C45CC6CC(CC(C6)C4)C5)c3)c2)S1`, the melting point lay in the range of 286 to 288 °C.

The molecule `O=C1c2cccc(-c3ccccc3)c2C2NCCN12` (centres undefined) had a melting point of 155 to 157 °C.

`CN(C)c1cccc(NC(=S)NN=Cc2ccc(-c3ncn(-c4ccc(OC(F)(F)F)cc4)n3)cc2)c1` registered a melting point of 192 to 194 °C.

Regarding `CC1(C)CC(O)CC(C)(C)N1Cc1ccc(CN2C(C)(C)CC(O)CC2(C)C)cc1`, the melting point fell in the range of 237 to 239 °C.

Molecule `CCOc1ccc(-c2c(S(C)(=O)=O)ccc(C(=O)c3cnn(C(C)(C)C)c3O)c2C)cc1` gave a melting point of 110 °C.

In turn, `COC(=O)CCC(=O)c1ccc(N2CCOCC2)cc1` had a melting point of 120 to 121 °C.

For the molecule `O=C(O)c1ccc(Cl)c2c1OCCO2`, the melting point came to 195 °C.

As to `CC(C)(C)OC(=O)c1cccc(C#N)n1`, the melting point lay in the range of 156 to 157 °C.

As for `N#Cc1ccc(C=CC(=O)N2CCc3c([nH]c4ccccc34)C2c2ccc3c(c2)OCO3)cc1` (centres undefined), the melting point was found to be 167 °C.

For `O=C(Nc1cccc(S(=O)(=O)NCC2CC2)c1)c1cnn2c(C(F)(F)F)cc(-c3ccc(C(F)(F)F)cc3)nc12`, the melting point is 234 °C.

Take `COc1cc(C2C3=C(COC3=O)N(Cc3ccc([N+](=O)[O-])cc3)c3cc4c(cc32)OCO4)cc(OC)c1O` (centres undefined): the melting point amounted to 193 °C.

Molecule `CC(C)(CO)NC(=O)CBr` registered a melting point of 107 to 109 °C.

With `O=c1[nH]c(=O)n(Cc2ccc(OCCCCCCCCCOc3ccc(Cn4oc(=O)[nH]c4=O)cc3)cc2)o1`, the melting point was 149 to 151 °C.

For `CCCCCCN(Cc1ccc2ccccc2n1)C(Nc1cc(C(C)(C)C)c(O)c(C(C)(C)C)c1)=C1C(=O)OC(C)(C)OC1=O`, the melting point fell in the range of 161 to 163 °C.

Consider `COc1ccc(/C=C/C(=O)C2C(=O)CC(c3ccc(OC)cc3)C([N+](=O)[O-])C2c2cccs2)cc1` (centres undefined), for which the melting point lay within 160 to 162 °C.

In turn, `O=C(Cn1c2c(c(=O)n3nc(-c4ccccc4)cc13)CN(C1CCCCC1)C2=O)c1ccccc1` displayed a melting point of 164 to 167 °C.

Take `CC(C(=O)C=Cc1ccccc1)C(=O)C=Cc1ccccc1` (centres undefined): the melting point fell in the range of 154 to 157 °C.

`NS(=O)(=O)CCCNc1nc(Cl)ncc1Cl`: the melting point lay in the range of 186 to 187 °C.

`COC1CCN2C(=O)c3cccc(NC(=O)Nc4cnc(C)cn4)c3C2C1` (centres undefined) yielded a melting point of 140 to 142 °C.

The molecule `Cc1nnc(Cl)c(-c2c(F)cccc2Cl)c1-c1ccc(Cl)nc1` yielded a melting point of 166 to 167 °C.

In turn, `ClC(=NN=Cc1cccnc1)c1cccnc1` came in with a melting point of 103 to 105 °C.

Take `CCOC(=O)c1c[nH]c2ccc(Cc3ccccc3)cc2c1=O`: the melting point lay within 265 to 270 °C.

As to `CCOC(=O)CCCCCCCn1c(Cc2ccccc2)nc(-c2ccccc2)c1-c1ccccc1`, the melting point was in the range of 82 to 83 °C.

Molecule `CC(C)(C)NS(=O)(=O)c1cncc(Br)c1` registered a melting point of 110 °C.

Turning to `COc1cc2c(cc1OC(C)C)-c1c(-c3cccs3)c3c(n1CC2)C(=O)N(C(C)C)CCNC3`, the melting point was 242 to 243 °C.

For the molecule `CCC1(c2cccs2)NC(=O)NC1=O` (centres undefined), the melting point fell in the range of 173 to 174 °C.
